{
  "source": "patent US20090269394A1",
  "about": "“METHODS AND COMPOSITIONS FOR TREATING ONCHOMYCOSIS” (priority 2008, published 2009)",
  "key": {"[1]": {"system": "Trichophyton mentagrophytes", "experiment": "MIC/MFC microtiter broth dilution", "assay_type": "cell-based"}, "T. violaceum": {"system": "T. violaceum", "experiment": "MIC against species that cause tinea capitis", "assay_type": "cell-based", "conditions": "T. violaceum n = 10"}, "[2]": {"system": "Candida albicans isolates", "experiment": "MIC/MFC microtiter broth dilution", "assay_type": "cell-based", "conditions": "NB-002 as μg CPC/ml; for MIC90: Candida albicans, read-out: MIC90"}, "M. audouinii": {"system": "M. audouinii", "experiment": "MIC against species that cause tinea capitis", "assay_type": "cell-based", "conditions": "M. audouinii n = 10"}, "Epidermophyton floccosum [3]": {"system": "Epidermophyton floccosum", "experiment": "MIC/MFC microtiter broth dilution", "assay_type": "cell-based", "conditions": "n = 6 isolates; NB-002 as μg CPC/ml"}, "Microsporum canis": {"system": "Microsporum canis", "experiment": "MIC/MFC microtiter broth dilution", "assay_type": "cell-based"}, "Trichophyton rubrum [4]": {"system": "Trichophyton rubrum", "assay_type": "cell-based", "conditions": "10^7 conidia plated; NBD031-c; drug plate 0.125 μg/ml"}, "Trichophyton rubrum [5]": {"system": "Trichophyton rubrum", "experiment": "microbe, parasite or virus in culture", "assay_type": "cell-based", "procedure": "(§1) Phenotypically resistant isolates were tested for MICs and compared to parental MICs."}, "Epidermophyton floccosum [6]": {"system": "Epidermophyton floccosum", "experiment": "microbe, parasite or virus in culture", "assay_type": "cell-based", "conditions": "read-out: Final MIC", "procedure": "as §1"}, "[7]": {"system": "Trichophyton mentagrophytes", "experiment": "microbe, parasite or virus in culture", "assay_type": "cell-based", "procedure": "as §1"}, "[8]": {"system": "Trichophyton mentagrophytes", "assay_type": "cell-based", "conditions": "10^7 conidia plated; NBD012-d; drug plate 0.0625 μg/ml"}, "T. rubrum": {"system": "T. rubrum", "experiment": "Time-kill experiments on mycelia and microconidia", "assay_type": "cell-based, Trichophyton rubrum", "conditions": "16×MIC, up to 24 hours, nongrowth conditions (FIG. 10)", "procedure": "Time-kill experiments. […] Part of the conidial suspension was pelleted and resuspended in RPMI 1640 medium and grown for 16-18 hours overnight at room temperature to allow germination of microconidia. After germination, the hyphae were collected by centrifugation and resuspended in distilled water. […] Colony-forming units were counted after four days of incubation at 35° C."}, "Trichophyton tonsurans": {"system": "Trichophyton tonsurans", "experiment": "MIC/MFC microtiter broth dilution", "assay_type": "cell-based"}, "Alternaria spp.": {"system": "Alternaria spp.", "experiment": "MIC against rare onychomycosis pathogens (CLSI M 38-A)", "assay_type": "cell-based", "conditions": "3 isolates; NB-002 as μg CPC/ml", "text": "(§2) Methods: All fungi were from patients, many of which had onychomycosis or another tinea infection."}, "Acremonium spp.": {"system": "Acremonium spp.", "experiment": "MIC against rare onychomycosis pathogens (CLSI M 38-A)", "assay_type": "cell-based", "conditions": "5 isolates; NB-002 as μg CPC/ml", "text": "as §2"}, "Curvularia spp.": {"system": "Curvularia spp.", "experiment": "MIC against rare onychomycosis pathogens (CLSI M 38-A)", "assay_type": "cell-based", "conditions": "3 isolates; NB-002 as μg CPC/ml", "text": "as §2"}, "Trichophyton verrucosum": {"system": "Trichophyton verrucosum", "experiment": "MIC against rare onychomycosis pathogens (CLSI M 38-A)", "assay_type": "cell-based", "conditions": "3 isolates; NB-002 as μg CPC/ml", "text": "as §2"}, "Paecilomyces spp.": {"system": "Paecilomyces spp.", "experiment": "MIC against rare onychomycosis pathogens (CLSI M 38-A)", "assay_type": "cell-based", "conditions": "4 isolates; NB-002 as μg CPC/ml", "text": "as §2"}, "Scedosporium spp.": {"system": "Scedosporium spp.", "experiment": "MIC against rare onychomycosis pathogens (CLSI M 38-A)", "assay_type": "cell-based", "conditions": "5 isolates; NB-002 as μg CPC/ml", "text": "as §2"}, "Phoma sp.": {"system": "Phoma sp.", "experiment": "MIC against rare onychomycosis pathogens (CLSI M 38-A)", "assay_type": "cell-based", "conditions": "3 isolates; NB-002 as μg CPC/ml", "text": "as §2"}, "Aspergillus spp.": {"system": "Aspergillus spp.", "experiment": "MIC against rare onychomycosis pathogens (CLSI M 38-A)", "assay_type": "cell-based", "conditions": "5 isolates; NB-002 as μg CPC/ml", "text": "as §2"}, "Trichophyton soundanense": {"system": "Trichophyton soundanense", "experiment": "MIC against rare onychomycosis pathogens (CLSI M 38-A)", "assay_type": "cell-based", "conditions": "3 isolates; NB-002 as μg CPC/ml", "text": "as §2"}, "Chaetomium spp.": {"system": "Chaetomium spp.", "experiment": "MIC against rare onychomycosis pathogens (CLSI M 38-A)", "assay_type": "cell-based", "conditions": "3 isolates; NB-002 as μg CPC/ml", "text": "as §2"}, "Epicoccum nigrum": {"system": "Epicoccum nigrum", "experiment": "MIC against rare onychomycosis pathogens (CLSI M 38-A)", "assay_type": "cell-based", "conditions": "3 isolates; NB-002 as μg CPC/ml", "text": "as §2"}, "[9]": {"conditions": "n = 14 isolates, NB-002 as μg CPC/ml"}, "[10]": {"conditions": "Azole-Resistant isolates (n = 24)"}, "[11]": {"conditions": "Azole-Susceptible isolates (n = 10)"}, "[12]": {"conditions": "M. canis (n = 5), NB-002 as μg CPC/ml"}, "[13]": {"conditions": "M. canis n = 10 (tinea capitis species)"}, "[14]": {"conditions": "T. tonsurans (n = 6), NB-002 as μg CPC/ml"}, "[15]": {"conditions": "T. tonsurans n = 10 (tinea capitis species)"}},
  "note": "Like-named read-outs stand apart in the source and are kept apart here.",
  "data": [
    {"molecule": "CN(C/C=C/C#CC(C)(C)C)Cc1cccc2ccccc12", "note": "[Terbinafine]", "values": [
      {"measurement": "MIC90", "setting": "[1]; Trichophyton mentagrophytes", "value": 0.125, "unit": "µg/mL"},
      {"measurement": "MIC50", "setting": "[1]; Trichophyton mentagrophytes, read-out: MIC50", "value": 0.0313, "unit": "µg/mL"},
      {"measurement": "MFC50", "setting": "[1]; [9]", "value": 0.25, "unit": "µg/mL"},
      {"measurement": "MFC90", "setting": "[1]; [9]", "value": ">1", "unit": "µg/mL"},
      {"measurement": "MIC range", "setting": "[1]; [9]", "value": "0.0313 to 0.25", "unit": "µg/mL"},
      {"measurement": "MIC50", "setting": "T. violaceum", "value": 0.03, "unit": "µg/mL"},
      {"measurement": "MIC90", "setting": "T. violaceum", "value": 0.03, "unit": "µg/mL"},
      {"measurement": "MIC range", "setting": "T. violaceum; in µg/mL", "value": "0.008-0.03"},
      {"measurement": "MFC90", "setting": "[2]; [10]", "value": ">1", "unit": "µg/mL"},
      {"measurement": "MFC90", "setting": "[2]; [11]", "value": ">1", "unit": "µg/mL"},
      {"measurement": "MIC90", "setting": "[2]; [10]", "value": "> 1", "unit": "µg/mL"},
      {"measurement": "MIC90", "setting": "[2]; [11]", "value": "> 1", "unit": "µg/mL"},
      {"measurement": "MIC50", "setting": "M. audouinii", "value": 0.06, "unit": "µg/mL"},
      {"measurement": "MIC90", "setting": "M. audouinii", "value": 0.06, "unit": "µg/mL"},
      {"measurement": "MIC range", "setting": "M. audouinii; in µg/mL", "value": "0.03-0.06"},
      {"measurement": "MFC Range", "setting": "Epidermophyton floccosum [3]", "value": "0.0313 to 1", "unit": "µg/mL"},
      {"measurement": "MIC range", "setting": "Epidermophyton floccosum [3]", "value": "0.0625 to 0.25", "unit": "µg/mL"},
      {"measurement": "MFC Range", "setting": "Microsporum canis; [12]", "value": "0.06 to 0.12", "unit": "µg/mL"},
      {"measurement": "MIC range", "setting": "Microsporum canis; [12]", "value": "0.004 to 0.03", "unit": "µg/mL"},
      {"measurement": "MIC50", "setting": "Microsporum canis; [13]", "value": 0.06, "unit": "µg/mL"},
      {"measurement": "MIC90", "setting": "Microsporum canis; [13]", "value": 0.06, "unit": "µg/mL"},
      {"measurement": "MIC range", "setting": "Microsporum canis; M. canis n = 10 (tinea capitis species), in µg/mL", "value": 0.06},
      {"measurement": "# CFU recovered", "setting": "Trichophyton rubrum [4]", "value": 1},
      {"measurement": "MIC", "setting": "Trichophyton rubrum [5]; read-out: Final MIC, isolate NBD031-a, selected on NB-002 drug plate 16 μg/ml", "value": 0.016, "unit": "µg/mL"},
      {"measurement": "MIC", "setting": "Trichophyton rubrum [5]; read-out: Final MIC, isolate NBD031-b, selected on itraconazole drug plate 0.125 μg/ml", "value": 0.016, "unit": "µg/mL"},
      {"measurement": "MIC", "setting": "Trichophyton rubrum [5]; read-out: Final MIC, isolate NBD031-c, selected on terbinafine drug plate 0.125 μg/ml", "value": 0.016, "unit": "µg/mL"},
      {"measurement": "MIC", "setting": "Epidermophyton floccosum [6]", "value": 0.016, "unit": "µg/mL"},
      {"measurement": "MIC", "setting": "[7]; read-out: Final MIC, isolate NBD012-a, selected on NB-002 drug plate 8 μg/ml", "value": 0.031, "unit": "µg/mL"},
      {"measurement": "MIC", "setting": "[7]; read-out: Final MIC, isolate NBD012-b, selected on NB-002 drug plate 16 μg/ml", "value": 0.031, "unit": "µg/mL"},
      {"measurement": "MIC", "setting": "[7]; read-out: Final MIC, isolate NBD012-c, selected on NB-002 drug plate 32 μg/ml", "value": 0.016, "unit": "µg/mL"},
      {"measurement": "MIC", "setting": "[7]; read-out: Final MIC, isolate NBD012-d, selected on terbinafine drug plate 0.0625 μg/ml", "value": 0.031, "unit": "µg/mL"},
      {"measurement": "MIC", "setting": "[7]; read-out: Final MIC, isolate NBD013-a, selected on itraconazole drug plate […]", "value": 0.016, "unit": "µg/mL"},
      {"measurement": "MIC", "setting": "[7]; read-out: Final MIC, isolate NBD014-a, selected on NB-002 drug plate 32 μg/ml", "value": 0.016, "unit": "µg/mL"},
      {"measurement": "# CFU recovered", "setting": "[8]", "value": 2},
      {"measurement": "reduction of colony counts / activity on mycelia and microconidia", "setting": "T. rubrum", "value": "no activity"},
      {"measurement": "MFC Range", "setting": "Trichophyton tonsurans; [14]", "value": "0.06 to 0.12", "unit": "µg/mL"},
      {"measurement": "MIC range", "setting": "Trichophyton tonsurans; [14]", "value": "0.008 to 0.015", "unit": "µg/mL"},
      {"measurement": "MIC50", "setting": "Trichophyton tonsurans; [15]", "value": 0.016, "unit": "µg/mL"},
      {"measurement": "MIC90", "setting": "Trichophyton tonsurans; [15]", "value": 0.016, "unit": "µg/mL"},
      {"measurement": "MIC range", "setting": "Trichophyton tonsurans; T. tonsurans n = 10 (tinea capitis species), in µg/mL", "value": "0.008-0.016"},
      {"measurement": "MIC range", "setting": "Alternaria spp.", "value": "1 to 2", "unit": "µg/mL"},
      {"measurement": "MIC range", "setting": "Acremonium spp.", "value": "0.125 to 1", "unit": "µg/mL"},
      {"measurement": "MIC range", "setting": "Curvularia spp.", "value": "0.03 to 1", "unit": "µg/mL"},
      {"measurement": "MIC range", "setting": "Trichophyton verrucosum", "value": "≦0.004-0.015 ug/ml"},
      {"measurement": "MIC range", "setting": "Paecilomyces spp.", "value": "0.25 to 0.5", "unit": "µg/mL"},
      {"measurement": "MIC range", "setting": "Scedosporium spp.", "value": ">2", "unit": "µg/mL"},
      {"measurement": "MIC range", "setting": "Phoma sp.", "value": 0.03, "unit": "µg/mL"},
      {"measurement": "MIC range", "setting": "Aspergillus spp.", "value": "0.03 to 0.25", "unit": "µg/mL"},
      {"measurement": "MIC range", "setting": "Trichophyton soundanense", "value": "≦0.004 ug/ml"},
      {"measurement": "MIC range", "setting": "Chaetomium spp.", "value": "1 to 2", "unit": "µg/mL"},
      {"measurement": "MIC range", "setting": "Epicoccum nigrum", "value": "0.03 to 0.06", "unit": "µg/mL"}
    ]}
  ]
}
